Assay results: ChEMBL document CHEMBL1132596, “Non-peptide corticotropin-releasing hormone antagonists: syntheses and structure-activity relationships of 2-anilinopyrimidines and -triazines” (J Med Chem, 1999)

Experiments:
[1] = biological target: T1, Corticotropin-releasing factor receptor 1 (Homo sapiens, UniProt P34998); assay: Binding affinity for human recombinant corticotropin releasing factor receptor 1
T1 sequence (P34998 whole entry): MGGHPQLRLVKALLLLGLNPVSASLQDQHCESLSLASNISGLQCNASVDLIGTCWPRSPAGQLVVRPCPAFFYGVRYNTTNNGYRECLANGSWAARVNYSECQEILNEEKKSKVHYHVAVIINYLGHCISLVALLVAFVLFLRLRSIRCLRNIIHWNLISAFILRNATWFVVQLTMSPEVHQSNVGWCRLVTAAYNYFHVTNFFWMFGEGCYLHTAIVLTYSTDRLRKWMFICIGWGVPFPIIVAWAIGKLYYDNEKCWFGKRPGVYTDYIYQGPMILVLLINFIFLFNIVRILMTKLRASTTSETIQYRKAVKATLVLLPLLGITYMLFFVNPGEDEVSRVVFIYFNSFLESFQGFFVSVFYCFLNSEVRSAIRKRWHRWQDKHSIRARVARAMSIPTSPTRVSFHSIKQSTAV

[2] = biological target: T2, Corticotropin-releasing factor receptor 1 (Rattus norvegicus, UniProt P35353); assay: Binding affinity was measured on rat Corticotropin releasing factor receptor 1
T2 sequence (P35353 whole entry): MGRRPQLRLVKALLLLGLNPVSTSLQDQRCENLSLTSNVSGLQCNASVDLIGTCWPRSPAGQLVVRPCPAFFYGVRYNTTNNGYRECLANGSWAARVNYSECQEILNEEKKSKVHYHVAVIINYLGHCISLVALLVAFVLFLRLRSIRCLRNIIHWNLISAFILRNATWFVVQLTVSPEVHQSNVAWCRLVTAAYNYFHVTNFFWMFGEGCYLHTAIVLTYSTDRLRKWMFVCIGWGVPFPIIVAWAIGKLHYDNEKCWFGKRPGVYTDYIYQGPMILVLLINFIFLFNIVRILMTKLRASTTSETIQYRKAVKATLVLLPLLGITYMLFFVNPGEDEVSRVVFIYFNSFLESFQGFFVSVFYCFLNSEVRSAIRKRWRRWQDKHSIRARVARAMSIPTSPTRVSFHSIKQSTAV

SMILES	Ki [1]	Ki [2]
CCN(c1nc(C)cc(C)n1)c1c(Br)cc(C(C)C)cc1SC	51 nM	–
CCN(CC)c1cc(C)nc(N(CC)c2c(Cl)cc(Br)cc2Cl)n1	24 nM	–
CCN(CC)c1cc(C)nc(N(CC)c2c(Cl)cc(OC)cc2Cl)n1	15 nM	–
CCCN(CC1CC1)c1cc(C)nc(N(CC)c2ccc(C(C)C)cc2Br)n1	9 nM	–
C=CCN(CC=C)c1nc(C)nc(N(CC)c2ccc(OC(F)(F)F)cc2Br)n1	4 nM	–
CCN(c1nc(C)cc(C)n1)c1ccccc1Br	> 1000 nM	–
C=CCN(c1nc(C)nc(N(CC)c2ccc(C(C)C)cc2Br)n1)C1CC1	5 nM	–
CCN(CC)c1cc(C)nc(N(CC)c2ccc(SC)cc2Br)n1	24 nM	–
CCN(c1nc(C)cc(C)n1)c1ccc(C(C)C)cc1I	–	38 nM
CCCN(CCC#N)c1nc(C)nc(N(CC)c2ccc(N(C)C)cc2C)n1	7 nM	–
CCN(CC)c1cc(C)nc(N(CC)c2c(Br)cc(Br)cc2OC)n1	31 nM	–
CCN(c1nc(C)nc(N(CCOC)CC2CC2)n1)c1c(C)cc(C)cc1C	25 nM	–
CCCCN(CC)c1nc(C)nc(N(CC)c2c(C)cc(C)cc2C)n1	23 nM	–
CCCCN(CC)c1cc(C)nc(N(CC)c2ccc(C(C)C)cc2Br)n1	19 nM	–
CCN(c1nc(C)cc(N2CCCCC2)n1)c1ccc(C(C)C)cc1Br	29 nM	–
CCCN(CCC)c1nc(C)nc(N(CC)c2ccc(N(C)C)cc2C)n1	7 nM	–
CCN(CC)c1cc(C)nc(N(CC)c2c(Br)cc(C(C)=O)cc2OC)n1	28 nM	–
CCN(CC)c1cc(C)nc(N(CC)c2ccc(C(C)=O)cc2Br)n1	5 nM	–
CCN(c1nc(C)cc(C)n1)c1c(Br)cc(N(C)C)cc1OC	5 nM	–
CCN(Cc1ccccc1)c1cc(C)nc(N(CC)c2ccc(C(C)C)cc2Br)n1	17 nM	–

SMILES	Ki [1]	Ki [2]
CCN(CC)c1cc(C)nc(N(CC)c2ccc(I)cc2Br)n1	9 nM	–
CCN(c1nc(C)cc(C)n1)c1ccc(OC)cc1SC	60 nM	–
CCCN(CCC)c1nc(C)nc(N(CC)c2ccc(C(C)C)cc2Br)n1	4 nM	–
CCN(CC)c1cc(C)nc(N(CC)c2ccc(N(C)C)cc2C(F)(F)F)n1	11 nM	–
CCN(c1nc(C)cc(N2CCOCC2)n1)c1ccc(C(C)C)cc1Br	22 nM	–
CCN(c1nc(C)cc(C)n1)c1ccc(OC)cc1Br	35 nM	–
CCCCN(CCOC)c1nc(C)nc(N(CC)c2c(C)cc(C)cc2C)n1	13 nM	–
CCC(CC)Nc1nc(C)nc(N(CC)c2ccc(C(C)C)cc2Br)n1	41 nM	–
CCN(c1nc(C)cc(C)n1)c1ccc(C(C)(C)C)cc1Br	> 100 nM	–
CCCCN(Cc1nnnn1C)c1cc(C)nc(N(CC)c2ccc(C(C)C)cc2Br)n1	41 nM	–
CCN(c1nc(C)nc(N(CC2CC2)CC2CC2)n1)c1ccc(N(C)C)cc1C(F)(F)F	5 nM	–
CCCN(CCC#N)c1nc(C)nc(N(CC)c2ccc(N(C)C)cc2C(F)(F)F)n1	5 nM	–
CCN(CC)c1cc(C)nc(N(CC)c2c(Br)cc(OC)cc2OC)n1	48 nM	–
CCN(CC)c1nc(C)nc(N(CC)c2ccc(N(C)C)cc2C(F)(F)F)n1	20 nM	–
CCCN(CCOC)c1cc(C)nc(N(CC)c2ccc(C(C)C)cc2Br)n1	11 nM	–
C=CCNc1nc(C)nc(N(CC)c2ccc(C(C)C)cc2Br)n1	33 nM	–
CCN(CC)c1cc(C)nc(N(CC)c2c(Cl)cc(OC)cc2OC)n1	10 nM	–
C=CCN(CC=C)c1nc(C)nc(N(CC)c2ccc(N(C)C)cc2Br)n1	3 nM	–
CCC(CC)c1cc(C)nc(N(CC)c2ccc(C(C)C)cc2Br)n1	2 nM	–
